According to US11447487B2, “Spiroheptanyl hydantoins as rock inhibitors” (BRISTOL-MYERS SQUIBB COMPANY, priority 2017, dated 2022):

Assays:
ROCK2 = ROCK2 (Homo sapiens (Human), UniProt O75116); test: ROCK assay (Caliper LABCHIP peptide phosphorylation); format: biochemical; conditions: 5 μM ATP, 1.5 μM peptide substrate
Outline: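 Human ROCK2 reaction with 5 μM ATP and 1.5 μM FITC-labelled peptide substrate in 20 mM HEPES pH 7.5, 20 mM MgCl2, 4 mM DTT, DMSO <2%; stopped with EDTA. Phosphorylated and unphosphorylated peptide separated by microfluidic mobility shift; IC50 from dose-response curve fit.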

[1] = test system: spontaneously hypertensive rat, renal hypertensive rat and deoxycortisone acetate salt hypertensive rat models; conditions: cited from earlier work
[2] = test system: neointimal formation in rats; conditions: cited from earlier work
Dahl salt-sensitive rats = conditions: rat, in vivo; cited from earlier work
[3] = test system: IL-1 beta-induced coronary stenosis; conditions: long term treatment; cited from earlier work

Sequence of ROCK2 (O75116 whole entry, species assumed): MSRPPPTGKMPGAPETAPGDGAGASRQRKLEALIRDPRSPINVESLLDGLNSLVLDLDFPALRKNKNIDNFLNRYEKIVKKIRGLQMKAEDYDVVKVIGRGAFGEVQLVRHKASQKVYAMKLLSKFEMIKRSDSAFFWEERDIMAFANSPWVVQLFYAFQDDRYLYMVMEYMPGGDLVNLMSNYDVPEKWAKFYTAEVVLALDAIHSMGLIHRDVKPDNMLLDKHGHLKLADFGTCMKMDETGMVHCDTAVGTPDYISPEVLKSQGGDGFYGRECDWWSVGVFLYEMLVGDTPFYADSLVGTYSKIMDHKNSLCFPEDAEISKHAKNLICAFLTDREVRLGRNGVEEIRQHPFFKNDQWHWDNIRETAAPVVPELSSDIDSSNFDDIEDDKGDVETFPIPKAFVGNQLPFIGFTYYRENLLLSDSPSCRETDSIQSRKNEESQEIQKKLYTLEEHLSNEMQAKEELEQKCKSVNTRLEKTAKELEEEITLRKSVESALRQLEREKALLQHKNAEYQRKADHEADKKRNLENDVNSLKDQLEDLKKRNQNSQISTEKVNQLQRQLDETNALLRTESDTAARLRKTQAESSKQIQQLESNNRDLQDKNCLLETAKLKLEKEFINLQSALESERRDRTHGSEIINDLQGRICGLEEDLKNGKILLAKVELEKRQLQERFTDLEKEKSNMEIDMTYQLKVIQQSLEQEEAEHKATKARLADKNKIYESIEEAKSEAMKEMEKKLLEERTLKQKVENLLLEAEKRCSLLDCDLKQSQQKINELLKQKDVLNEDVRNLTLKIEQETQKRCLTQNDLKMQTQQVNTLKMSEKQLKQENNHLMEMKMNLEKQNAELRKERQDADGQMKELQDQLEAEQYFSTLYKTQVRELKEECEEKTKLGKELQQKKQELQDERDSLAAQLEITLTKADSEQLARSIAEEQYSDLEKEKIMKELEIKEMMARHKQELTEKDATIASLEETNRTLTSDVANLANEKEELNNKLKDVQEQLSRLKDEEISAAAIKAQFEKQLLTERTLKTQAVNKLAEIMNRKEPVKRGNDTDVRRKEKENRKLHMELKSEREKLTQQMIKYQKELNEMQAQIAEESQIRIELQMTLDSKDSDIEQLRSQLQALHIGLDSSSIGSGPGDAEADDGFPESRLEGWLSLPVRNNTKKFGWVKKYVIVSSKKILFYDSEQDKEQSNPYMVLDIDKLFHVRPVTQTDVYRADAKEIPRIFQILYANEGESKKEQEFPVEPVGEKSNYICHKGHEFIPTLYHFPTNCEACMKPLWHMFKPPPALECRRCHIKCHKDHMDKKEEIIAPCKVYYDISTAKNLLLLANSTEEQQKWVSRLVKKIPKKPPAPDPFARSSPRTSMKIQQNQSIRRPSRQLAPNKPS

| IC50 (ROCK2) [nM] | Compound | further results |
| --- | --- | --- |
| 13 | CS(=O)(=O)c1cccc(N2CC(=O)N([C@H]3C[C@@]4(C[C@H](Oc5ncccc5C(N)=O)C4)C3)C2=O)c1 (some centres unmarked) [Example 89, 2-(((αR)-6-(3-(3-(methylsulfonyl)phenyl)-2,5-dioxoimidazolidin-1-yl)spiro[3.3]heptan-2-yl)oxy)nicotinamide] |  |
| 21 | C/C(=C\c1ccccc1)CC1NC(=O)N([C@H]2C[C@@]3(C[C@H](Oc4ncccc4C(N)=O)C3)C2)C1=O (some centres unmarked) [Example 90, 2-(((αR)-6-(4-((E)-2-methyl-3-phenylallyl)-2,5-dioxoimidazolidin-1-yl)spiro[3.3]heptan-2-yl)oxy)nicotinamide] |  |
| 29 | [H][C@]1(Oc2ncccc2C(N)=O)C[C@]2(C[C@@H](N3C(=O)NC(CC(C)Cc4ccccc4)C3=O)C2)C1 (stereo partly drawn) [Example 91, 2-(((aR)-6-(4-(2-methyl-3-phenylpropyl)-2,5-dioxoimidazolidin-1-yl)spiro[3.3]heptan-2-yl)oxy)nicotinamide] |  |
| 6 | C[C@H](C[C@@H]1NC(=O)N([C@H]2C[C@@]3(C[C@H](Oc4ncccc4C(N)=O)C3)C2)C1=O)C(F)(F)F (stereo partly drawn) [Example 92, 2-(((αR)-6-((S)-2,5-dioxo-4-((R)-3,3,3-trifluoro-2-methylpropyl)imidazolidin-1-yl)spiro[3.3]heptan-2-yl)oxy)nicotinamide] |  |
| 9 | C[C@@H](C[C@@H]1NC(=O)N([C@H]2C[C@@]3(C[C@H](Oc4ncccc4C(N)=O)C3)C2)C1=O)C(F)(F)F (stereo partly drawn) [Example 93, 2-(((αR)-6-((S)-2,5-dioxo-4-((S)-3,3,3-trifluoro-2-methylpropyl)imidazolidin-1-yl)spiro[3.3]heptan-2-yl)oxy)nicotinamide] |  |
| 27 | CC(C)(CC1NC(=O)N([C@H]2C[C@@]3(C[C@H](Oc4ncccc4C(N)=O)C3)C2)C1=O)c1ccccc1 (some centres unmarked) [Example 94, 2-(((αR)-6-(2,5-dioxo-4-(2-phenyl-2-methylpropyl)imidazolidin-1-yl)spiro[3.3]heptan-2-yl)oxy)nicotinamide] |  |
| 6 | CC(C[C@@H]1NC(=O)N([C@H]2C[C@@]3(C[C@H](Oc4ncccc4C(N)=O)C3)C2)C1=O)c1ccccc1 (stereo partly drawn) [Example 95, 2-(((αR)-6-((S)-2,5-dioxo-4-(2-phenyl-propyl)imidazolidin-1-yl)spiro[3.3]heptan-2-yl)oxy)nicotinamide] |  |
| 264 | CC(C[C@H]1NC(=O)N([C@H]2C[C@@]3(C[C@H](Oc4ncccc4C(N)=O)C3)C2)C1=O)c1ccccc1 (stereo partly drawn) [Example 96, 2-(((αR)-6-((R)-2,5-dioxo-4-(2-phenyl-propyl)imidazolidin-1-yl)spiro[3.3]heptan-2-yl)oxy)nicotinamide] |  |
| 28 | NC(=O)c1cccnc1O[C@H]1CC2(C1)C[C@H](N1C(=O)N[C@@H](CC3CCC(NC(=O)OCc4ccccc4)CC3)C1=O)C2 (some centres unmarked) [Example 97] |  |
| 52 | NC(=O)c1cccnc1O[C@H]1C[C@]2(C1)C[C@H](N1C(=O)NC(CC3CCN(C(=O)OCc4ccccc4)CC3)C1=O)C2 (some centres unmarked) [Example 98, 2-(((αR)-6-(2,5-dioxo-4-(N-benzyloxycarbonyl-piperidin-4-ylmethyl)imidazolidin-1-yl)spiro[3.3]heptan-2-yl)oxy)nicotinamide] |  |
| 659 | NC(=O)c1cccnc1O[C@H]1C[C@]2(C1)C[C@H](N1C(=O)NC(C[C@@H]3C[C@H]4CC[C@@H](C3)N4C(=O)OCc3ccccc3)C1=O)C2 (some centres unmarked) [Example 99, benzyl 3-((1-((αR)-6-((3-carbamoylpyridin-2-yl)oxy)spiro[3.3]heptan-2-yl)-2,5-dioxoimidazolidin-4-yl)methyl)-8-azabicyclo[3.2.1] octane-8-carboxylate] |  |
| 52 | [H][C@]1(Oc2ncccc2C(N)=O)C[C@@]2(C[C@H](N3C(=O)N[C@@H](C[C@H]4CC[C@H](NC(=O)c5ccccc5)CC4)C3=O)C2)C1 (some centres unmarked) [Example 100] |  |
| 146 | NC(=O)c1cccnc1O[C@H]1C[C@]2(C1)C[C@H](N1C(=O)NC(CC3CCN(C(=O)c4ccccc4)CC3)C1=O)C2 (some centres unmarked) [Example 101, 2-(((αR)-6-(2,5-dioxo-4-(N-benzoylpiperidin-4-ylmethyl)imidazolidin-1-yl)spiro[3.3]heptan-2-yl)oxy)nicotinamide] |  |
| 5 | [H][C@]1(Oc2nc(OC)ccc2C(N)=O)C[C@]2(C[C@@H](N3C(=O)N[C@@H](CC(C)C(F)(F)F)C3=O)C2)C1 (some centres unmarked) [Example 102] |  |
|  | C[C@@H](N)[C@H]1CC[C@H](C(=O)Nc2ccncc2)CC1 [Example Y-27632, Y-27632] | blood pressure in control rats ([1]; control rats): only a minor effect on blood pressure; blood pressure ([1]; three rat models of hypertension): significantly decrease blood pressure; neointimal formation [2]: inhibited neointimal formation; ventricular hypertrophy, fibrosis and function (Dahl salt-sensitive rats): improve ventricular hypertrophy, fibrosis and function |
|  | O=S(=O)(c1cccc2cnccc12)N1CCCNCC1 [fasudil] | coronary constrictive remodeling [3]: promote a regression of coronary constrictive remodeling; coronary stenosis [3]: progressively reduce coronary stenosis |
